Experimental data taken from patent US6046238A, “Method for treating or preventing the spread of acne vulgaris” (TriStrata, Inc., priority 1999, dated 2000).
Converted amounts (≈) assume the structure as drawn. “Also recorded” adds a separate entry of the source. Read-outs that look alike come from different tables or passages of the source.

Tests used:
[1] = test system: ten different species of bacteria; test: MIC Agar Dilution Test, panel of ten bacteria; type: cell-based; conditions: with or without 10% lipid materials
Text: (§1) The following strains of microorganisms were used in Minimum Inhibitory Concentration (MIC) tests for phenyl 2-acetoxyethanoic acid in this example and for benzoyl peroxide, chlorhexidine gluconate and triclosan in the following examples. In total, five strains were used for S. aureus, five strains were used for S. epidermidis, two strains were used for M. sedentarius, three strains were used for M. luteus, two strains were used for B. epidermis, three strains were used for C. minutissium, one strain was used for S. marcescens, three strains were used for P. aeruginosa, four strains were used for E. coli, and thirty-two strains were used for P. acnes.
(§2) Antimicrobial effects were determined based on MIC Agar Dilution Test utilizing Trypticase Soy Agar II (BBL) incorporation plates with and without 10% intralipid (Kabi Pharmacia Inc.). Initially, phenyl 2-acetoxyethanoic acid was prepared as a 2 mg/ml (0.2%) solution in water. This solution with serial dilution was incorporated into the test agar plates. The MIC test gave similar results when the same species but a different strain was used.
(§3) Under the same test conditions described in Example 1, benzoyl peroxide was prepared as a 2.5 mg/ml (0.25%) solution in water. This solution with serial dilution was incorporated into the test agar plates. Typical test results are shown as follows.
(§4) Under the same test conditions described in Example 1, chlorhexidine gluconate was prepared as a 2 mg/ml (0.2%) solution in water. This solution with serial dilution was incorporated into the test agar plates. Typical test results are shown as follows.
(§5) Under the same test conditions described in Example 1, triclosan was prepared as a 10 mg/ml (1%) solution in water. This solution with serial dilution was incorporated into the test agar plates. Typical test results are shown as follows.
In order to determine the antimicrobial effect of an aryl 2-acetoxyethanoicacid, a standard test method of Minimum Inhibitory Concentration (MIC) against the growth of 10 bacteria was used. To determine a prophylactic effect against the development of, as well as a topical effect in the treatment of, body foul door, eleven human subjects participated in this study. More than twenty human subjects participated in a study to determine whether the compositions containing an aryl 2-acetoxyethanoic acid were therapeutically effective for topical treatment of folliculitis and other skin lesions, nail infections and mucosal infections caused by microbial infections. Scientific and test results are overviewed as follows.
(§6) Ten different species of bacteria were used in Minimum Inhibitory Concentration (MIC) tests. The bacteria include S. aureus, S. epidermidis,M. sedentarius, M. luteus, B. epidermis, C. minutissium, S. marcescens, P. aeruginosa, E. coli, and P. acnes. In addition various sources and strains of these bacteria were also included in the tests, and up to 32 different strains of P. acnes were used.
(§7) The test substance selected from phenyl 2-acetoxyethanoic acid, benzoyl peroxide, chlorhexidine gluconate and triclosan was dissolved in water, and the solution with serial dilution was incorporated into the test agar plates. The plates containing different concentrations of test substance were inoculated with a strain of bacterium. MIC is defined as the lowest concentration of the test substance in the plate in which there is no growth of the microorganism.

Micrococcus luteus = test: MIC Agar Dilution Test, Micrococcus luteus; type: cell-based; conditions: M. luteus
Text: as §1, §2, §3, §4, §5, §6, §7

[2] = treatment of oral infections; type: in vivo, human; conditions: 2% composition diluted to 0.1%; oral rinse twice daily
Procedure: Compositions for treatment of oral infections may contain an aryl 2-acetoxyethanoic acid as the only active ingredient. In this case a phenyl 2-acetoxyethanoic acid or diphenyl 2-acetoxyethanoic acid 2% composition was formulated by dissolving the active ingredient 2 g in ethanol 78 ml and propylene glycol 20 ml. Before use, this composition was diluted to 0.1% with water by mixing one part of the composition with 19 parts of water. The treatment involves oral rinse, wash and gargle by keeping the diluted composition inside the oral cavity for a few minutes, and then spit out. Such procedure may be repeated twice daily for several days until the infection is eradicated usually within 5-7 days.

[3] = topical treatment of folliculitis and perifolliculitis; type: in vivo, human; conditions: 0.9%, twice daily; nine patients
Procedure: Nine patients having various degrees of folliculitis and perifolliculitis participated in this study. A test composition containing 0.9% phenyl 2-acetoxyethanoic acid or diphenyl 2-acetoxyethanoic acid was prepared by dissolving 0.9 g compound in 79.1 ml 2-propanol, 15 ml butane-1,3-diol and 5 ml nonoxynol-6. The composition was packaged in one-ounce bottles. The patients were instructed to apply the test composition twice daily on the infected skin lesions and involved areas. Topical applications were continued up to 8 weeks.

Escherichia coli = test: MIC Agar Dilution Test, Escherichia coli; type: cell-based; conditions: E. coli
Text: as §1, §2, §3, §4, §5, §6, §7

Propionibacterium acnes = test: MIC Agar Dilution Test, Propionibacterium acnes; type: cell-based; conditions: for MIC: Cutibacterium acnes
Text: as §1, §2, §3, §4, §5, §6, §7

Brevibacterium epidermis = test: MIC Agar Dilution Test, Brevibacterium epidermis; type: cell-based; conditions: B. epidermis
Text: as §1, §2, §3, §4, §5, §6, §7

[4] = prevention and treatment of foot malodor; type: in vivo, human; conditions: 1% in talc powder
Procedure: A typical test for prophylactic effect in preventing the development of, as well as treatment of, foot malodor was carried out as follows. A test composition in powder form was prepared by mixing 1 g of finely powdered phenyl 2-acetoxyethanoic acid with 99 g of talc powder. The talc powder alone was used as a control vehicle.
A human subject had persistent foot malodor all year round. […] On the first morning, the subject was instructed to spread the test composition lightly on the left foot and also inside the hose. The control vehicle was used on the right foot and inside the hose. […] The subject was then instructed to apply the test composition on both feet the second morning.
A total of six subjects (three females; three males) participated in several studies.
A test composition containing 1% phenyl 2-acetoxyethanoic acid in powder form was prepared by mixing thoroughly 1 g of finely powdered compound with 99 g of talc powder. The talc powder alone was used as a control vehicle. The test composition and the control vehicle were packaged in one-ounce powder containers. The participating subjects were instructed to lightly spread the test composition on the bottom of the left foot and inside the hose or sock on the first morning.
The criteria for ineffectiveness or effectiveness of the test composition were based on presence or absence of malodor as detected by olfactory sense of smell. Both feet were monitored by the subject and at least one other person in the evening.
The subjects were then instructed to apply the test composition on both feet the next morning. […] The same topical applications were continued by all the participants for several days to confirm the above results.

[5] = 10% intralipid, read-out: MIC Lipid
[6] = no lipid, read-out: MIC No Lipid

**Q.** Which “inhibitory effects against the growth of all ten bacteria” value [1] does the source give for `CC(=O)OC(C(=O)O)c1ccccc1` (centres unmarked) [phenyl 2-acetoxyethanoic acid] here?
**A.** had inhibitory effects against all of the above bacteria

**Q.** What about the “inhibitory effects against the growth of all ten bacteria” value ([1]; listed as Phenyl 2-acetoxyethanoic acid) of the same compound?
**A.** showed inhibitory effects against the growth of all ten bacteria tested

**Q.** And the MIC (Micrococcus luteus; [5])?
**A.** 1000 µg/mL (≈ 5.15 mM)

**Q.** And the MIC (Micrococcus luteus; [6])?
**A.** 1000 µg/mL (≈ 5.15 mM)

**Q.** And the “time within which oral infection is usually eradicated” value [2]?
**A.** 5 to 7 days

**Q.** And the “deeper lesions of papules” value [3]?
**A.** eradicated or substantially improved after 4 to 8 weeks of topical applications

**Q.** And the “superficial folliculitis and perifolliculitis lesions” value [3]?
**A.** eradicated or substantially improved after a few days of topical applications

**Q.** What about the MIC (Escherichia coli; [5]) of the same compound?
**A.** 1000 µg/mL (≈ 5.15 mM)

**Q.** What about the MIC (Escherichia coli; [6]) of the same compound?
**A.** 1000 µg/mL (≈ 5.15 mM)

**Q.** And the MIC (Propionibacterium acnes; P. acnes, 10% intralipid, read-out: MIC Lipid)?
**A.** 250 µg/mL (≈ 1.29 mM)

**Q.** And the MIC (Propionibacterium acnes; P. acnes, no lipid, read-out: MIC No Lipid)?
**A.** 250 µg/mL (≈ 1.29 mM)

**Q.** And the MIC (Propionibacterium acnes; even in the presence of 10% lipid materials, read-out: concentration specifically effective against the growth of P. acnes)?
**A.** 250 µg/mL

**Q.** And the MIC (Propionibacterium acnes; in the presence of 10% lipid materials, read-out: concentration effective against P. acnes)?
**A.** 250 µg/mL

**Q.** What about the “inhibitory effect against P. acnes, compared” value (Propionibacterium acnes; with or without lipid materials, same test conditions as comparators) of the same compound?
**A.** most active and effective compound against P. acnes

**Q.** And the MIC (Brevibacterium epidermis; [5])?
**A.** 1000 µg/mL (≈ 5.15 mM)

**Q.** What about the MIC (Brevibacterium epidermis; [6]) of the same compound?
**A.** 1000 µg/mL (≈ 5.15 mM)

**Q.** What about the “overall effectiveness against foot malodor” value [4] of the same compound?
**A.** topically effective in preventing the development of and in treating foot malodor; also recorded: topically effective in preventing the development of and was also therapeutically effective for topical treatment of foot malodor

**Q.** And the “malodor of both feet at the end of the second day” value ([4]; both feet treated)?
**A.** produced no detectable malodor

**Q.** What about the “malodor of left foot by the first evening” value ([4]; left foot treated, right foot vehicle) of the same compound?
**A.** produced no detectable malodor in all the participating subjects

**Q.** And the “malodor on continued application” value ([4]; several days)?
**A.** complete suppression of malodor was sustained
